The numbers were not newly measured in US20140255503A1, “PHARMACEUTICAL COMPOSITION OF OMEPRAZOLE” (LABORATORIOS DEL DR. ESTEVE, S.A., priority 2011, published 2014), which cites them from elsewhere.

The structures appear in SMILES notation.

Experiment in data set [1]: not given
This is another data set of the same source.

For `COc1ccc2[nH]c([S+]([O-])Cc3ncc(C)c(OC)c3C)nc2c1` (stereo not shown) [Omeprazole, 5-methoxy-2-(4-methoxy-3,5-dimethylpyridin-2-ylmethylsulfinyl)-1H-benzimidazole], the Solubility in acetone result (acetone) is reported as “slightly soluble”. In addition, the Solubility in ethanol entry (ethanol) is on record as “freely soluble”. Further, under “isopropanol”, the Solubility in isopropanol result is on record as “slightly soluble”. The Solubility in methanol entry (methanol) is “freely soluble”. Further, the Solubility in water entry (water) is listed as “very slightly soluble”. In data set [1] (acid media), the “Stability in acid media” value is “rapidly degraded”. Also, the “Stability under alkaline conditions” value in data set [1] (alkaline conditions) is on record as “acceptable stability”.
